Laboratory results as given in patent US8192962B2, “Processes for detecting toxic substances” (Daikin Industries, Ltd., priority 2001, dated 2012).

Test system: Energy system protein genes
Experiment: DNA chip mRNA expression in yeast, energy system protein genes (Table 4)
Format: cell-based, Saccharomyces cerevisiae S288C
Procedure, shortened: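 Measured as treated-to-untreated fluorescence ratio on a full-genome yeast DNA chip. Cells (S288C, YPD, 25° C.) were exposed in log phase for two hours to one chemical, dosed to curb growth without killing.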

CCCCCCCCCCCCc1ccc(S(=O)(=O)[O-])cc1.[Na+] [(17), sodium dodecylbenzosulfonate]
The level of expressed mRNA in the presence of chemical substance/The level of expressed mRNA in the absence of chemical substance (yeast gene YAL060W): 1.1 | The level of expressed mRNA in the presence of chemical substance/The level of expressed mRNA in the absence of chemical substance (yeast gene YBL058W, cells incubated two hours with the chemical substance): 1.0 | The level of expressed mRNA in the presence of chemical substance/The level of expressed mRNA in the absence of chemical substance (yeast gene YBL099W, cells incubated two hours with the chemical substance): 0.7 | The level of expressed mRNA in the presence of chemical substance/The level of expressed mRNA in the absence of chemical substance (yeast gene YBR001C, cells incubated two hours with the chemical substance): 1.0 | The level of expressed mRNA in the presence of chemical substance/The level of expressed mRNA in the absence of chemical substance (yeast gene YBR185C, cells incubated two hours with the chemical substance): 0.8 | The level of expressed mRNA in the presence of chemical substance/The level of expressed mRNA in the absence of chemical substance (yeast gene YBR221C, cells incubated two hours with the chemical substance): 0.9 | The level of expressed mRNA in the presence of chemical substance/The level of expressed mRNA in the absence of chemical substance (yeast gene YCL040W): 1.4 | The level of expressed mRNA in the presence of chemical substance/The level of expressed mRNA in the absence of chemical substance (yeast gene YCR012W): 0.8 | The level of expressed mRNA in the presence of chemical substance/The level of expressed mRNA in the absence of chemical substance (yeast gene YCR046C, cells incubated two hours with the chemical substance): 1.3 | The level of expressed mRNA in the presence of chemical substance/The level of expressed mRNA in the absence of chemical substance (yeast gene YCR105W, cells incubated two hours with the chemical substance): 1.3 | The level of expressed mRNA in the presence of chemical substance/The level of expressed mRNA in the absence of chemical substance (yeast gene YDL021W): 1.9 | The level of expressed mRNA in the presence of chemical substance/The level of expressed mRNA in the absence of chemical substance (yeast gene YDL067C, cells incubated two hours with the chemical substance): 1.2 | The level of expressed mRNA in the presence of chemical substance/The level of expressed mRNA in the absence of chemical substance (yeast gene YDL078C, cells incubated two hours with the chemical substance): 1.1 | The level of expressed mRNA in the presence of chemical substance/The level of expressed mRNA in the absence of chemical substance (yeast gene YDL107W, cells incubated two hours with the chemical substance): 1.1 | The level of expressed mRNA in the presence of chemical substance/The level of expressed mRNA in the absence of chemical substance (yeast gene YDL174C): 2.2 | The level of expressed mRNA in the presence of chemical substance/The level of expressed mRNA in the absence of chemical substance (yeast gene YDL181W, cells incubated two hours with the chemical substance): 1.5 | The level of expressed mRNA in the presence of chemical substance/The level of expressed mRNA in the absence of chemical substance (yeast gene YDR001C): 1.1 | The level of expressed mRNA in the presence of chemical substance/The level of expressed mRNA in the absence of chemical substance (yeast gene YDR050C, cells incubated two hours with the chemical substance): 1.1 | The level of expressed mRNA in the presence of chemical substance/The level of expressed mRNA in the absence of chemical substance (yeast gene YDR079W, cells incubated two hours with the chemical substance): 1.1 | The level of expressed mRNA in the presence of chemical substance/The level of expressed mRNA in the absence of chemical substance (yeast gene YDR178W, cells incubated two hours with the chemical substance): 1.2 | The level of expressed mRNA in the presence of chemical substance/The level of expressed mRNA in the absence of chemical substance (yeast gene YDR231C): 1.2 | The level of expressed mRNA in the presence of chemical substance/The level of expressed mRNA in the absence of chemical substance (yeast gene YDR298C, cells incubated two hours with the chemical substance): 1.1 | The level of expressed mRNA in the presence of chemical substance/The level of expressed mRNA in the absence of chemical substance (yeast gene YDR377W, cells incubated two hours with the chemical substance): 1.2 | The level of expressed mRNA in the presence of chemical substance/The level of expressed mRNA in the absence of chemical substance (yeast gene YDR529C, cells incubated two hours with the chemical substance): 1.0 | The level of expressed mRNA in the presence of chemical substance/The level of expressed mRNA in the absence of chemical substance (yeast gene YEL024W, cells incubated two hours with the chemical substance): 1.1 | The level of expressed mRNA in the presence of chemical substance/The level of expressed mRNA in the absence of chemical substance (yeast gene YEL039C, cells incubated two hours with the chemical substance): 0.7 | The level of expressed mRNA in the presence of chemical substance/The level of expressed mRNA in the absence of chemical substance (yeast gene YER178W): 1.1 | The level of expressed mRNA in the presence of chemical substance/The level of expressed mRNA in the absence of chemical substance (yeast gene YFL057C): 1.6 | The level of expressed mRNA in the presence of chemical substance/The level of expressed mRNA in the absence of chemical substance (yeast gene YFR053C): 1.4 | The level of expressed mRNA in the presence of chemical substance/The level of expressed mRNA in the absence of chemical substance (yeast gene YGL018C, cells incubated two hours with the chemical substance): 0.8 | The level of expressed mRNA in the presence of chemical substance/The level of expressed mRNA in the absence of chemical substance (yeast gene YGL062W): 1.1 | The level of expressed mRNA in the presence of chemical substance/The level of expressed mRNA in the absence of chemical substance (yeast gene YGL187C, cells incubated two hours with the chemical substance): 0.9 | The level of expressed mRNA in the presence of chemical substance/The level of expressed mRNA in the absence of chemical substance (yeast gene YGL191W, cells incubated two hours with the chemical substance): 1.2 | The level of expressed mRNA in the presence of chemical substance/The level of expressed mRNA in the absence of chemical substance (yeast gene YGL205W, cells incubated two hours with the chemical substance): 3.9 | The level of expressed mRNA in the presence of chemical substance/The level of expressed mRNA in the absence of chemical substance (yeast gene YGL256W, cells incubated two hours with the chemical substance): 0.7 | The level of expressed mRNA in the presence of chemical substance/The level of expressed mRNA in the absence of chemical substance (yeast gene YGR043C): 1.6 | The level of expressed mRNA in the presence of chemical substance/The level of expressed mRNA in the absence of chemical substance (yeast gene YGR062C, cells incubated two hours with the chemical substance, 25° C., YPD medium): 0.9 | The level of expressed mRNA in the presence of chemical substance/The level of expressed mRNA in the absence of chemical substance (yeast gene YGR087C, cells incubated two hours with the chemical substance): 1.0 | The level of expressed mRNA in the presence of chemical substance/The level of expressed mRNA in the absence of chemical substance (yeast gene YGR174C, cells incubated two hours with the chemical substance): 1.3 | The level of expressed mRNA in the presence of chemical substance/The level of expressed mRNA in the absence of chemical substance (yeast gene YGR192C): 1.1 | The level of expressed mRNA in the presence of chemical substance/The level of expressed mRNA in the absence of chemical substance (yeast gene YGR244C): 1.9 | The level of expressed mRNA in the presence of chemical substance/The level of expressed mRNA in the absence of chemical substance (yeast gene YGR254W): 1.3 | The level of expressed mRNA in the presence of chemical substance/The level of expressed mRNA in the absence of chemical substance (yeast gene YHR179W): 1.9 | The level of expressed mRNA in the presence of chemical substance/The level of expressed mRNA in the absence of chemical substance (yeast gene YIL160C): 2.4 | The level of expressed mRNA in the presence of chemical substance/The level of expressed mRNA in the absence of chemical substance (yeast gene YIR031C, cells incubated two hours with the chemical substance): 0.9 | The level of expressed mRNA in the presence of chemical substance/The level of expressed mRNA in the absence of chemical substance (yeast gene YJL052W): 1.2 | The level of expressed mRNA in the presence of chemical substance/The level of expressed mRNA in the absence of chemical substance (yeast gene YJL121C, cells incubated two hours with the chemical substance): 1.1 | The level of expressed mRNA in the presence of chemical substance/The level of expressed mRNA in the absence of chemical substance (yeast gene YJL166W, cells incubated two hours with the chemical substance): 1.7 | The level of expressed mRNA in the presence of chemical substance/The level of expressed mRNA in the absence of chemical substance (yeast gene YJL216C, cells incubated two hours with the chemical substance): 1.2 | The level of expressed mRNA in the presence of chemical substance/The level of expressed mRNA in the absence of chemical substance (yeast gene YJR009C): 1.1
